Assay results taken from patent US11414439B2, “Modulators of cystic fibrosis transmembrane conductance regulator, pharmaceutical compositions, methods of treatment, and process for making the modulator” (Vertex Pharmaceuticals Incorporated, priority 2018, dated 2022).

Test system: CFTR
Assay: CFTR modulating activity (Table 6; one or more of the disclosed assays, e.g. enteroid membrane potential dye assay); further: key: Active; ND-not detected
Format: cell-based, human
Conditions: generated using one or more of the assays disclosed herein
Description: Human intestinal epithelial enteroid cells may be obtained from the Hubrecht Institute for Developmental Biology and Stem Cell Research, Utrecht, The Netherlands and expanded in T-Flasks as previously described (Dekkers J F, Wiegerinck C L, de Jonge H R, Bronsveld I, Janssens H M, de Winter-de Groot K M, Brandsma A M, de Jong N W M, Bijvelds M J C, Scholte B J, Nieuwenhuis E E S, van den Brink S, Clevers H, van der Ent C K, Middendorp S and M Beekman J M. A functional CFTR assay using primary cystic fibrosis intestinal organoids. Nat Med. 2013 July; 19(7):939-45).
Cells may be recovered in cell recovery solution, collected by centrifugation at 650 rpm for 5 min at 4° C., resuspended in TryPLE and incubated for 5 min at 37° C. Cells can then be collected by centrifugation at 650 rpm for 5 min at 4° C. and resuspended in IEMM containing 10 μM ROCK inhibitor (RI). The cell suspension is then passed through a 40 μm cell strainer and resuspended at 1×10^6 cells/mL in IEMM containing 10 μM RI. Cells may be seeded at 5000 cells/well into multi-well plates and incubated for overnight at 37° C., 95% humidity and 5% CO2 prior to assay.
Enteroid cells may be incubated with test compound in IEMM for 18-24 hours at 37° C., 95% humidity and 5% CO2. Following compound incubations, a membrane potential dye assay can be employed using a FLIPR Tetra to directly measure the potency and efficacy of the test compound on CFTR-mediated chloride transport following acute addition of 10 μM forskolin and 300 nM N-[2,4-bis(1,1-dimethylethyl)-5-hydroxyphenyl]-1,4-dihydro-4-oxoquinoline-3-carboxamide. Briefly, cells are washed 5 times in Bath 1 Buffer. Bath 1 Dye Solution is added and the cells are incubated for 25 min at room temperature. Following dye incubation, cells are washed 3 times in Chloride Free Dye Solution. Chloride transport is initiated by addition of Chloride Free Dye Stimulation Solution and the fluorescence signal is read for 15 min. The CFTR-mediated chloride transport for each condition may be determined from the AUC of the fluorescence response to acute forskolin and 300 nM N-[2,4-bis(1,1-dimethylethyl)-5-hydroxyphenyl]-1,4-dihydro-4-oxoquinoline-3-carboxamide stimulation.
Chloride transport may be expressed as a percentage of the chloride transport following treatment with one or more reference standards or positive controls. Suitable reference standards/controls include one or more of Compound II, Compound III, Compound IV, and Compound A. Compound A is:
Table 6 confirms CFTR modulating activity for representative compounds of the invention generated using one or more of the assays disclosed herein.

| Compound | CFTR Modulating Activity |
| --- | --- |
| Cc1nn(C)cc1S(=O)(=O)NC(=O)c1ccc(-n2ccc([Si](C)(C)C)n2)nc1N1C[C@@H](C)CC1(C)C [Compound (2-12), N-(1,3-Dimethylpyrazol-4-yl)sulfonyl-2-[(4S)-2,2,4-trimethylpyrrolidin-1-yl]-6-(3-trimethylsilylpyrazol-1-yl)pyridine-3-carboxamide] | Active |
| Cc1nn(C)cc1S(=O)(=O)NC(=O)c1ccc([Si](C)(C)C)nc1N1C[C@@H](C)CC1(C)C [Compound (2-5), N-(1,3-dimethylpyrazol-4-yl)sulfonyl-2-[(4S)-2,2,4-trimethylpyrrolidin-1-yl]-6-trimethylsilyl-pyridine-3-carboxamide] | Active |
| Cc1nn(C)cc1S(=O)(=O)NC(=O)c1ccc(-n2ccc(OCCC[Si](C)(C)C)n2)nc1N1C[C@@H](C)CC1(C)C [Compound (2-6), N-(1,3-Dimethylpyrazol-4-yl)sulfonyl-2-[(4S)-2,2,4-trimethylpyrrolidin-1-yl]-6-[3-(3-trimethylsilylpropoxy)pyrazol-1-yl]pyridine-3-carboxamide] | Active |
| Cc1nn(C)cc1S(=O)(=O)NC(=O)c1ccc(-n2ccc(OC[Si](C)(C)C)n2)nc1N1C[C@@H](C)CC1(C)C [Compound (2-3), N-(1,3-Dimethylpyrazol-4-yl)sulfonyl-2-[(4S)-2,2,4-trimethylpyrrolidin-1-yl]-6-[3-(trimethylsilylmethoxy)pyrazol-1-yl]pyridine-3-carboxamide] | Active |
| Cc1nn(C)cc1S(=O)(=O)NC(=O)c1ccc(-n2ccc([Si](C)(C)CCC(C)(C)C)n2)nc1N1C[C@@H](C)CC1(C)C [Compound (2-1), 6-[3-[3,3-Dimethylbutyl(dimethyl)silyl]pyrazol-1-yl]-N-(1,3-dimethylpyrazol-4-yl)sulfonyl-2-[(4S)-2,2,4-trimethylpyrrolidin-1-yl]pyridine-3-carboxamide] | Active |
| Cc1nn(C)cc1S(=O)(=O)NC(=O)c1ccc(-n2ccc(OCCC3([Si](C)(C)C)CC3)n2)nc1N1C[C@@H](C)CC1(C)C [Compound (2-2), N-(1,3-dimethylpyrazol-4-yl)sulfonyl-2-[(4S)-2,2,4-trimethylpyrrolidin-1-yl]-6-[3-[2-(1-trimethylsilylcyclopropyl)ethoxy]pyrazol-1-yl]pyridine-3-carboxamide] | Active |
| Cc1nn(C)cc1S(=O)(=O)NC(=O)c1ccc(-n2ccc(OC[Si](C)(C)C(C)(C)C)n2)nc1N1C[C@@H](C)CC1(C)C [Compound (2-11), 6-[3-[[tert-Butyl(dimethyl)silyl]methoxy]pyrazol-1-yl]-N-(1,3-dimethylpyrazol-4-yl)sulfonyl-2-[(4S)-2,2,4-trimethylpyrrolidin-1-yl]pyridine-3-carboxamide] | Active |
| Cc1nn(C)cc1S(=O)(=O)NC(=O)c1ccc(-n2ccc([Si](C)(C)C(C)(C)C)n2)nc1N1C[C@@H](C)CC1(C)C [Compound (2-10), 6-[3-[tert-Butyl(dimethyl)silyl]pyrazol-1-yl]-N-(1,3-dimethylpyrazol-4-yl)sulfonyl-2-[(4S)-2,2,4-trimethylpyrrolidin-1-yl]pyridine-3-carboxamide] | Active |
| Cc1nn(C)cc1S(=O)(=O)NC(=O)c1ccc(-n2ccc(OCC(C)(C)C(F)(F)F)n2)nc1N1CC([Si](C)(C)C)CC1(C)C (single isomer, unassigned) [(2-8) Enantiomer 2] | Active |
| Cc1nn(C)cc1S(=O)(=O)NC(=O)c1ccc(-n2ccc(OCC[Si](C)(C)C)n2)nc1N1C[C@@H](C)CC1(C)C [Compound (2-4), N-(1,3-dimethylpyrazol-4-yl)sulfonyl-2-[(4S)-2,2,4-trimethylpyrrolidin-1-yl]-6-[3-(2-trimethylsilylethoxy)pyrazol-1-yl]pyridine-3-carboxamide] | Active |
| Cc1nn(C)cc1S(=O)(=O)NC(=O)c1ccc(-n2ccc(OCC(C)(C)C(F)(F)F)n2)nc1N1C[C@@H](C)CC1(C)[Si](C)(C)C (single isomer, unassigned) [(2-9) Stereoisomer 1] | Active |
| Cc1nn(C)cc1S(=O)(=O)NC(=O)c1ccc(-n2ccc([Si](C)(C)CCC(F)(F)F)n2)nc1N1C[C@@H](C)CC1(C)C [Compound (2-7), N-(1,3-Dimethylpyrazol-4-yl)sulfonyl-6-[3-[dimethyl(3,3,3-trifluoropropyl)silyl]pyrazol-1-yl]-2-[(4S)-2,2,4-trimethylpyrrolidin-1-yl]pyridine-3-carboxamide] | Active |
